target: T1, human Nav1.8 channels (Homo sapiens, UniProt Q9Y5Y9); experiment: Nav1.8 Qube automated patch-clamp assay; type: cell-based; details: human Nav1.8 stably expressed in HEK 293 cells; whole-cell voltage clamp, room temperature; resting or inactivated state not specified; read-out: IC50 values (nM) for Examples in the Nav1.8 Qube Assay
T1 construct: expressed in transfected cells
Method in brief: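 Whole-cell patch clamp at room temperature on HEK293 cells stably expressing human Nav1.8. A 1 Hz train of ten 20 ms pulses to 10 mV from −90 mV holding, with −67 mV repolarization, was applied; first- and tenth-pulse peak currents gave resting and inactivated-state IC50s by Hill fitting.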

T1 sequence (Q9Y5Y9 whole entry): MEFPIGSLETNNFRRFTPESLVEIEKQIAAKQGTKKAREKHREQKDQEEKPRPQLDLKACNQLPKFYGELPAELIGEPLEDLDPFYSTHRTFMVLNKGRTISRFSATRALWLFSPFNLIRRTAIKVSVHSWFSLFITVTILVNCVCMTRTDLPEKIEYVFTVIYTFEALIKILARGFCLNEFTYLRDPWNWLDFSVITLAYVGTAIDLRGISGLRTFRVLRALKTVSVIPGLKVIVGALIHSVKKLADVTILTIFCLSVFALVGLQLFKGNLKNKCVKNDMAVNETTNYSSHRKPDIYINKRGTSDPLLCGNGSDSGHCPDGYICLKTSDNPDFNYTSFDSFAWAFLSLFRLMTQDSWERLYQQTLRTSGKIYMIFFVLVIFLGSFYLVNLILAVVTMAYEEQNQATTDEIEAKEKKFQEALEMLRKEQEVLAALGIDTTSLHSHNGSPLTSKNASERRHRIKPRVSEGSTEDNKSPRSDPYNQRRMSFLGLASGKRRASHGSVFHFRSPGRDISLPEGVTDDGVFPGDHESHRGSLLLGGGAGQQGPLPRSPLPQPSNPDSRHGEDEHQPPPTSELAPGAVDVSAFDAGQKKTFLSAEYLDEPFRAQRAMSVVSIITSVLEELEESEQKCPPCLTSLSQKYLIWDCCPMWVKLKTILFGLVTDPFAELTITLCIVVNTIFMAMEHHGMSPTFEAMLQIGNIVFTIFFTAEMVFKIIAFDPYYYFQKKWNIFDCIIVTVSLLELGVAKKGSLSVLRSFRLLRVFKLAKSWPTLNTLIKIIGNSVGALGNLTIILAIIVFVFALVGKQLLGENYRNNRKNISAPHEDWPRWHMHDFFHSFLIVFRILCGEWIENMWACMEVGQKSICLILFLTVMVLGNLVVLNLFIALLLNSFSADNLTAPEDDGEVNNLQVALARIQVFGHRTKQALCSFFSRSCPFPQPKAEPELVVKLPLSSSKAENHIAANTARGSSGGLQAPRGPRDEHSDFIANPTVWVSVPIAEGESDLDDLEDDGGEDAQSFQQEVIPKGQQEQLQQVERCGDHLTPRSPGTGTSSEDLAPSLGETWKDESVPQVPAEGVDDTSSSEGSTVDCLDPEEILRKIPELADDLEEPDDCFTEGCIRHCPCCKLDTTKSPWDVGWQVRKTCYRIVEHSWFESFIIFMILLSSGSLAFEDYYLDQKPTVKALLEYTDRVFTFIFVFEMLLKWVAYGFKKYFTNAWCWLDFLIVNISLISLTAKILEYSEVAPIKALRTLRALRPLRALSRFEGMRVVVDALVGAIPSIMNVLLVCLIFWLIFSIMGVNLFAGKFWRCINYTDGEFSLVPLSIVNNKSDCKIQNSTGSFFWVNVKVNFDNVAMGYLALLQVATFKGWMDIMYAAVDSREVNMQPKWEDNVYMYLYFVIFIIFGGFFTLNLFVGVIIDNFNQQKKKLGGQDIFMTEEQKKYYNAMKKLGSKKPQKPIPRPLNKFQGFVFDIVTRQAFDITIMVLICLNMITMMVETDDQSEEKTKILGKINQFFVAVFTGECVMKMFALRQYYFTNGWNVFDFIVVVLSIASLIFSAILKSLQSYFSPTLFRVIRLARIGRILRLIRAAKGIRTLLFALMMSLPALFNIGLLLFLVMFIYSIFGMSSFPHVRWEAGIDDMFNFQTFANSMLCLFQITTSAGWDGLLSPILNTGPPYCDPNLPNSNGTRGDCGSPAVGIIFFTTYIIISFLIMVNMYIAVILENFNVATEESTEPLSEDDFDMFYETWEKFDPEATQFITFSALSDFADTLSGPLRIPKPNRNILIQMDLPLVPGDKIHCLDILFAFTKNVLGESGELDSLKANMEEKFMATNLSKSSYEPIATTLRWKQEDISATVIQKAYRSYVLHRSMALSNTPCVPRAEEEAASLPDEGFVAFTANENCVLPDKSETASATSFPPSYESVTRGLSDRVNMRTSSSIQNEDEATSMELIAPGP

SMILES | IC50 [nM]
NS(=O)(=O)c1cc(NC(=O)c2cc(-n3cccn3)cnc2N2CCC(F)(F)CC2)ccn1 [Example 207, 2-(4,4-difluoropiperidin-1-yl)-5-(1H-pyrazol-1-yl)-N-(2-sulfamoylpyridin-4-yl)nicotinamide] | 1080
CS(=O)(=O)c1cc(NC(=O)c2cc(C(F)(F)F)cnc2N2CCCCCC2)ccn1 [Example 140, 2-(azepan-1-yl)-N-(2-methylsulfonyl-4-pyridyl)-5-(trifluoromethyl)-pyridine-3-carboxamide] | 91
Cc1nc(C2CCC(F)(F)CC2)c(C(=O)Nc2ccnc(S(N)(=O)=O)c2)c(C)c1Cl [Example 218, 5-chloro-2-(4,4-difluorocyclohexyl)-4,6-dimethyl-N-(2-sulfamoylpyridin-4-yl)nicotinamide] | 2.4
NS(=O)(=O)c1cc(NC(=O)c2ncc(Cl)nc2N2CCCC(F)(F)CC2)ccn1 [Example 216, 5-chloro-3-(4,4-difluoroazepan-1-yl)-N-(2-sulfamoylpyridin-4-yl)pyrazine-2-carboxamide] | 80
O=C(Nc1cc[nH]c(=O)c1)c1cc(C(F)(F)F)cnc1N1CCC2(CC1)CC2 [Example 208, N-(2-oxo-1,2-dihydropyridin-4-yl)-2-(6-azaspiro[2.5]octan-6-yl)-5-(trifluoromethyl)nicotinamide] | 287
NS(=O)(=O)c1cncc(NC(=O)c2cc(C(F)(F)F)cnc2N2CCCC(F)(F)CC2)c1 [Example 144, 2-(4,4-difluoroazepan-1-yl)-N-(5-sulfamoyl-3-pyridyl)-5-(trifluoro-methyl)pyridine-3-carboxamide] | 36
Cc1nc(N2CCC(F)(F)CC2)c(C(=O)Nc2cncc(S(N)(=O)=O)c2)c(C)c1Cl [Example 189, 5-chloro-2-(4,4-difluoro-1-piperidyl)-4,6-dimethyl-N-(5-sulfamoyl-3-pyridyl)pyridine-3-carboxamide] | 13
CC1CN(c2ncc(C(F)(F)F)cc2C(=O)Nc2ccnc(C#N)c2)CCC1(F)F (single isomer, unassigned) [Example 154, (S or R)-N-(2-cyanopyridin-4-yl)-2-(4,4-difluoro-3-methylpiperidin-1-yl)-5-(trifluoro-methyl)nicotinamide] | 84
Cc1cc(Cl)nc(N2CCC(F)(F)CC2)c1C(=O)Nc1cncc(S(N)(=O)=O)c1 [Example 11, 6-chloro-2-(4,4-difluoropiperidin-1-yl)-4-methyl-N-(5-sulfamoylpyridin-3-yl)nicotinamide] | 212
NS(=O)(=O)c1cc(NC(=O)c2cc(-c3ccccc3)cnc2N2CCC(F)(F)CC2)ccn1 [Example 205, 2-(4,4-difluoropiperidin-1-yl)-5-phenyl-N-(2-sulfamoylpyridin-4-yl)nicotinamide] | 71
O=C(O)c1cc(NC(=O)c2cc(C(F)(F)F)cnc2N2CCC(F)(F)CC2)ccn1 [Example 4, 4-(2-(4,4-difluoropiperidin-1-yl)-5-(trifluoromethyl)nicotinamido)picolinic acid] | 5430
O=C(Nc1cc[nH]c(=O)c1)c1cc(Cl)c(C2CC2)nc1N1CCCC(F)(F)CC1 [Example 27, 5-chloro-6-cyclopropyl-2-(4,4-difluoroazepan-1-yl)-N-(2-oxo-1,2-dihydropyridin-4-yl)nicotinamide] | 31
NS(=O)(=O)c1cc(NC(=O)c2cnc(C3CC3)nc2N2CCCC(F)(F)CC2)ccn1 [Example 38, 2-cyclopropyl-4-(4,4-difluoroazepan-1-yl)-N-(2-sulfamoylpyridin-4-yl)pyrimidine-5-carboxamide] | 24
N#Cc1ccc(NC(=O)c2cc(C(F)(F)F)cnc2N2CCC(F)(F)CC2)cn1 [Example 5, N-(6-cyanopyridin-3-yl)-2-(4,4-difluoropiperidin-1-yl)-5-(trifluoromethyl)nicotinamide] | 820
COc1ccc(C(=O)Nc2cncc(S(N)(=O)=O)c2)c(N2CCCC(F)(F)CC2)n1 [Example 192, 2-(4,4-difluoroazepan-1-yl)-6-methoxy-N-(5-sulfamoyl-3-pyridyl)pyridine-3-carboxamide] | 163

The next lines start with the values.

IC50 [nM] | SMILES
147 | NS(=O)(=O)c1cc(NC(=O)c2cc(C(F)(F)F)cnc2N2CCSCC2)ccn1 [Example 84, N-(2-sulfamoyl-4-pyridyl)-2-thiomorpholino-5-(trifluoromethyl)pyridine-3-carboxamide]
27 | C[C@@H]1CN(c2ncc(C(F)(F)F)cc2C(=O)Nc2ccnc(S(N)(=O)=O)c2)C[C@@H](C(F)(F)F)O1 [Example 102, 2-((2R,6S)-2-methyl-6-(trifluoromethyl)morpholino)-N-(2-sulfamoylpyridin-4-yl)-5-(trifluoromethyl)nicotinamide]
2 | CC1CN(c2ncc(C(F)(F)F)cc2C(=O)Nc2ccnc(S(N)(=O)=O)c2)CCCC1(F)F (stereo not drawn) [Example 131, 2-(4,4-difluoro-3-methylazepan-1-yl)-N-(2-sulfamoylpyridin-4-yl)-5-(trifluoromethyl)nicotinamide]
41 | CC1CN(c2ncc(C(F)(F)F)cc2C(=O)Nc2ccnc(C(N)=O)c2)CCC1(F)F (single isomer, unassigned) [Example 158, N-(2-carbamoyl-4-pyridyl)-2-[(3S or 3R)-4,4-difluoro-3-methyl-1-piperidyl]-5-(trifluoromethyl)-pyridine-3-carboxamide]
707 | NS(=O)(=O)c1cc(NC(=O)c2cc(C(F)(F)F)cnc2N2CC(C(F)(F)F)C2)ccn1 [Example 93, N-(2-sulfamoyl-4-pyridyl)-5-(trifluoromethyl)-2-[3-(trifluoromethyl)azetidin-1-yl]pyridine-3-carboxamide]
633 | C[C@@H]1CN(c2ncc(C(F)(F)F)cc2C(=O)Nc2ccnc(S(N)(=O)=O)c2)CCCO1 [Example 111, 2-[(2R)-2-methyl-1,4-oxazepan-4-yl]-N-(2-sulfamoyl-4-pyridyl)-5-(trifluoromethyl)pyridine-3-carboxamide]
82 | CC1CN(c2ncc(C(F)(F)F)cc2C(=O)Nc2ccnc(C(N)=O)c2)CCC1(F)F (single isomer, unassigned) [Example 157, N-(2-carbamoyl-4-pyridyl)-2-[(3R or 3S)-4,4-difluoro-3-methyl-1-piperidyl]-5-(trifluoromethyl)-pyridine-3-carboxamide]
14 | CC1CN(c2ncc(C(F)(F)F)cc2C(=O)Nc2ccnc(S(N)(=O)=O)c2)CCC1(Cl)Cl (single isomer, unassigned) [Example 50, (S or R)-2-(4,4-dichloro-3-methylpiperidin-1-yl)-N-(2-sulfamoylpyridin-4-yl)-5-(trifluoromethyl)nicotinamide]
3.9 | C[C@H]1CN(c2ncc(C(F)(F)F)cc2C(=O)Nc2ccnc(S(N)(=O)=O)c2)CCC1(F)F (single isomer, unassigned) [Example 47]
30 | NS(=O)(=O)c1cc(NC(=O)c2cc(C(F)(F)F)cnc2N2CCOC(C(F)(F)F)CC2)ccn1 (single isomer, unassigned) [Example 119, (S or R)-N-(2-sulfamoylpyridin-4-yl)-5-(trifluoromethyl)-2-(7-(trifluoromethyl)-1,4-oxazepan-4-yl)nicotinamide]
166 | C[C@H]1CN(c2ncc(C(F)(F)F)cc2C(=O)Nc2ccnc(S(N)(=O)=O)c2)C[C@H](C(F)(F)F)O1 [Example 103, 2-((2S,6R)-2-methyl-6-(trifluoromethyl)morpholino)-N-(2-sulfamoylpyridin-4-yl)-5-(trifluoromethyl)nicotinamide]
1090 | O=C(Nc1ccnc(S(=O)(=O)O)c1)c1cc(C(F)(F)F)cnc1N1CCC(F)(F)CC1 [Example 176, 4-(2-(4,4-difluoropiperidin-1-yl)-5-(trifluoromethyl)nicotinamido)pyridine-2-sulfonic acid]
753 | N#CC1CCN(c2ncc(C(F)(F)F)cc2C(=O)Nc2ccnc(S(N)(=O)=O)c2)C1 (single isomer, unassigned) [Example 129, (S or R)-2-(3-cyanopyrrolidin-1-yl)-N-(2-sulfamoylpyridin-4-yl)-5-(trifluoromethyl)nicotinamide]
15 | CC12CCN(c3ncc(C(F)(F)F)cc3C(=O)Nc3ccnc(S(N)(=O)=O)c3)CC1C2(F)F (single isomer, unassigned) [Example 61, 2-[(1S,6S or 1R,6R)-7,7-difluoro-6-methyl-3-azabicyclo[4.1.0]heptan-3-yl]-N-(2-sulfamoyl-4-pyridyl)-5-(trifluoromethyl)pyridine-3-carboxamide]
220 | NS(=O)(=O)c1cc(NC(=O)c2cc(C(F)(F)F)cnc2N2CCC[C@@H]2C(F)(F)F)ccn1 [Example 127, (R)-N-(2-sulfamoylpyridin-4-yl)-5-(trifluoromethyl)-2-(2-(trifluoromethyl)pyrrolidin-1-yl)nicotinamide]
659 | NS(=O)(=O)c1cc(NC(=O)c2cc(C(F)(F)F)cnc2N2CC(F)(F)C(F)(F)C2)ccn1 [Example 92, N-(2-sulfamoyl-4-pyridyl)-2-(3,3,4,4-tetrafluoropyrrolidin-1-yl)-5-(trifluoromethyl)pyridine-3-carboxamide]
103 | CC1(C)CO[C@@H](C(F)(F)F)CN(c2ncc(C(F)(F)F)cc2C(=O)Nc2ccnc(S(N)(=O)=O)c2)C1 [Example 106, 2-[(2R)-6,6-dimethyl-2-(trifluoromethyl)-1,4-oxazepan-4-yl]-N-(2-sulfamoyl-4-pyridyl)-5-(trifluoromethyl)pyridine-3-carboxamide]
225 | CC1CC(F)(F)CCN1c1ncc(C(F)(F)F)cc1C(=O)Nc1ccnc(S(N)(=O)=O)c1 (single isomer, unassigned) [Example 73, (R or S)-2-(4,4-difluoro-2-methylpiperidin-1-yl)-N-(2-sulfamoylpyridin-4-yl)-5-(trifluoromethyl)nicotinamide]
